Source: article PMC8838408, “Antileishmanial Effects of Acetylene Acetogenins from Seeds of Porcelia macrocarpa (Warm.) R.E. Fries (Annonaceae) and Semisynthetic Derivatives” (Molecules, 2022)
“Also recorded” adds a separate entry of the source. Read-outs that look alike come from different tables or passages of the source.

Experiments:
[1] = tested on: intracellular amastigote forms of Leishmania (L.) infantum; assay: Activity against L. (L.) infantum intracellular amastigotes in infected peritoneal macrophages; format: cell-based; conditions: for SI (selectivity index): CC50 NCTC cells/IC50 parasites; for IC50 / IC50 L. (L.) infantum: 96 h; for IC50: read-out: IC50 L. (L.) infantum
Procedure: L. (L.) infantum (MHOM/BR/1972/LD) was maintained through successive passages in golden hamsters up to 60–70 days post-infection. Amastigotes were harvested from spleens of infected hamsters by differential centrifugation.
(§1) Macrophages were collected from the peritoneal cavity of female BALB/c mice by washing with RPMI-1640 without phenol red, supplemented with 10% FBS at 37 °C in a humidified atmosphere containing 5% CO2. NCTC (clone 929) cells were maintained in RPMI-1640 (without phenol red and supplemented with 10% FBS) at 37 °C in the same conditions of the peritoneal macrophages.
The 50% inhibitory concentrations (IC50) against intracellular amastigotes for tested compounds were determined in infected macrophages. Peritoneal macrophages were obtained as described in the Section 3.6.3, and L. (L.) infantum amastigotes were obtained from spleens of infected hamsters by differential centrifugation. Peritoneal macrophages were seeded at 1 × 10^5 cells per well in Nunc™ 16-well slide chambers (Aldrich, St. Louis, MO, USA) for 24 h at 37 °C in a 5% CO2-humidified incubator. Next, amastigotes were isolated from a spleen of an infected hamster as described, counted, seeded at a 1:10 macrophages/amastigotes ratio, and incubated for 24 h. Non-internalized parasites were removed by washing twice with a culture medium. Then, the macrophages were incubated with compounds or standard drug (miltefosine) in a range of 100 to 0.78 μM for 96 h at 37 °C in a 5% CO2-humidified incubator, using miltefosine as a standard drug. At the end of the assay, the cells were fixed in methanol, stained with Giemsa, and observed under a digital light microscope (EVOS M5000, Thermo, Waltham, MA, USA) to determine the number of infected macrophages out of 400 cells.
(§2) The data obtained represent the mean and standard deviation of duplicate samples from at least three independent assays. IC50 and CC50 values were calculated using sigmoid dose–response curves in Graph Pad Prism 5.0 software (GraphPad Software, San Diego, CA, USA).

[2] = Cytotoxicity against mammalian cells (MTT assay); format: cell-based; conditions: mouse, NCTC clone 929 cells, highest concentration 200 μM
Procedure: as §1
The 50% cytotoxic concentration (CC50) was determined in NCTC clone 929 cells. NCTC cells were seeded at 6 × 10^4 cells/well in 96-well microplates and incubated with serial dilutions of the tested compounds or standard drug (miltefosine) to the highest concentration of 200 μM for 48 h at 37 °C in a 5% CO2-humidified incubator. An MTT assay determined the viability of the cells at 570 nm. The selectivity index (SI) was determined considering the following equation: CC50 NCTC cells/IC50 parasites.
as §2

[3] = Peritoneal macrophage, intracellular amastigotes in BALB/c peritoneal macrophages, 100 to 0.78 μM, NA: non-active
[4] = intracellular amastigotes in BALB/c peritoneal macrophages, 100 to 0.78 μM, NA: non-active

Structure (SMILES): C=CCCCCCCC#CCCCCCCCCCC[C@@H]1C(=O)O[C@H](C)[C@@H]1O [Compound 1, (2S,3R,4R)-3-hydroxy-4-methyl-2-(n-eicos-11′-yn-19′-enyl)butanolide]
- SI (selectivity index) [1]: >6.7
- IC50 [1, 3]: 29.9 ± 9.7 µM
- CC50 at 48 h [2]: > 200 µM

Structure (SMILES): C=CCCCCCCC#CCCCCCCCCCC[C@@H]1C(=O)O[C@H](C)[C@@H]1OC(C)=O [Compound 1a, (2S,3R,4R)-3-Acetoxy-4-methyl-2-(n-eicos-11′-yn-19′-enil)butanolide]
- SI (selectivity index) [1]: >4.6
- IC50 [1, 3]: 43.3 µM
- IC50 [1, 4]: 43.4 ± 3.9 µM
- CC50 at 48 h [2]: > 200 µM

Structure (SMILES): C=CCCCCCCC#CCCCCCCCCCCC1=C[C@@H](C)OC1=O [Compound 1b, 4R-Methyl-2-(n-eicos-11′-yn-19′-enil)but-2-enolide]
- SI (selectivity index) [1]: >8.6
- IC50 ([1]; Peritoneal macrophage): 23.1 ± 5.4 µM
- CC50 at 48 h [2]: > 200 µM

Structure (SMILES): CCCCCCCCC#CCCCCCCCCCC[C@@H]1C(=O)O[C@H](C)[C@@H]1O [Compound 2, (2S,3R,4R)-3-hydroxy-4-methyl-2-(n-eicos-11′-ynyl)butanolide]
- IC50 [1, 3]: > 100 µM
- IC50 L. (L.) infantum [1, 4]: inactive
- CC50 at 48 h [2]: > 200 µM

Structure (SMILES): CCCCCCCCC#CCCCCCCCCCC[C@@H]1C(=O)O[C@H](C)[C@@H]1OC(C)=O [Compound 2a, (2S,3R,4R)-3-Acetoxy-4-methyl-2-(n-eicos-11′-ynil)butanolide]
- IC50 L. (L.) infantum [1, 4]: no activity
- CC50 at 48 h [2]: > 200 µM

Structure (SMILES): CCCCCCCCC#CCCCCCCCCCCC1=C[C@@H](C)OC1=O [Compound 2b, 4R-Methyl-2-(n-eicos-11′-ynil)but-2-enolide]
- IC50 L. (L.) infantum [1, 4]: no activity
- CC50 at 48 h [2]: > 200 µM

Structure (SMILES): CCCCCCCCCCCCCCCCCCCCC1C(=O)OC(C)C1O [Compound 3, (2S,3R,4R)-3-Hydroxy-4-methyl-2-(n-eicosanil)butanolide]
- IC50 [1, 3]: > 100 µM
- IC50 L. (L.) infantum [1, 4]: lack of activity; also recorded: no activity
- CC50 at 48 h [2]: > 200 µM

Structure (SMILES): CCCCCCCCCCCCCCCCCCCCC1C(=O)OC(C)C1OC(C)=O [Compound 3a, (2S,3R,4R)-3-Acetoxy-4-methyl-2-(n-eicosanil)butanolide]
- IC50 L. (L.) infantum [1, 4]: lack of activity; also recorded: no activity
- CC50 at 48 h [2]: > 200 µM

Structure (SMILES): CCCCCCCCCCCCCCCCCCCCC1=C[C@@H](C)OC1=O [Compound 3b, 4R-Methyl-2-(n-eicosanil)but-2-enolide]
- IC50 L. (L.) infantum [1, 4]: lack of activity; also recorded: no activity
- CC50 at 48 h [2]: > 200 µM

Structure (SMILES): CCCCCCCCCCCCCCCCOP(=O)([O-])OCC[N+](C)(C)C [Miltefosine, reference compound]
- SI (selectivity index) [1]: 6.5
- IC50 [1, 3]: 17.8 ± 1.4 µM
- CC50 at 48 h [2]: 116 ± 5.3 µM
